In paper PMC11820618 (Molecules, 2025):
Read-outs that look alike come from different tables or passages of the source.

Key:
TRPV1 = conditions: cited from earlier work; for IC50: read-out: TRPV1 IC50 (desensitization); for EC50: read-out: TRPV1 EC50 (potency)
rat TRPA1 = biological target: T1, rat TRPA1 (Rattus norvegicus, UniProt Q6RI86); test: cell-based; conditions: for Emax: HEK293, read-out: TRPA1 Eff. %;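 on Emax: percent of maximal Ca2+ influx with 100 µM AITC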;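 on TRPA1 Eff. %: percent of maximal Ca2+ influx with 100 µM AITC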
T1 construct: expressed in transfected cells

human TRPV1 = biological target: T2, human TRPV1 (Homo sapiens, UniProt Q8NER1); test: cell-based; conditions: for Emax: HEK293, read-out: TRPV1 Eff. %;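 on Emax: percent of maximal Ca2+ influx with 4 µM ionomycin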;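 on TRPV1 Eff. %: percent of maximal Ca2+ influx with 4 µM ionomycin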
T2 construct: expressed in transfected cells
T2 sequence (Q8NER1 whole entry): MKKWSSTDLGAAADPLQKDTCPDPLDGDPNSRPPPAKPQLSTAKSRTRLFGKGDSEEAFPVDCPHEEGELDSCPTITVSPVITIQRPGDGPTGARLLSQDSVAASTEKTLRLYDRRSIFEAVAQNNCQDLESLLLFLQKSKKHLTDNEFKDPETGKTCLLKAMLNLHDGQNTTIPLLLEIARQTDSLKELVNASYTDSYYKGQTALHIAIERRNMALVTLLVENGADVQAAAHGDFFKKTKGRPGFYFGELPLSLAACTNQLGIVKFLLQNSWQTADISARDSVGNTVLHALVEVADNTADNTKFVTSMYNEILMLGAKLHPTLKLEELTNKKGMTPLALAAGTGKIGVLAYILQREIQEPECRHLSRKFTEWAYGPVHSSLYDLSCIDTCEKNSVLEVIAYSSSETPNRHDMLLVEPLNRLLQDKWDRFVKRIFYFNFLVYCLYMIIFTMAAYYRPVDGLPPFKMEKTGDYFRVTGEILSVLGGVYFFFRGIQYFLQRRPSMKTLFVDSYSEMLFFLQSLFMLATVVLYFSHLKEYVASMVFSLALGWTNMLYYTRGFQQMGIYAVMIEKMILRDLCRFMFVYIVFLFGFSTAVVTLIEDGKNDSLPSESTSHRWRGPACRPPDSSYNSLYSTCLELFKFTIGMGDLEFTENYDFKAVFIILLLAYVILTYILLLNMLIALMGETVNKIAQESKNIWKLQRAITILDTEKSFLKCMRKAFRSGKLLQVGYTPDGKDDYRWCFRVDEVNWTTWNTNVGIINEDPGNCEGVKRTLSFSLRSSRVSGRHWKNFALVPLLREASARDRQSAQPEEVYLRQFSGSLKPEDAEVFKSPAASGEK

T1 sequence (Q6RI86 whole entry): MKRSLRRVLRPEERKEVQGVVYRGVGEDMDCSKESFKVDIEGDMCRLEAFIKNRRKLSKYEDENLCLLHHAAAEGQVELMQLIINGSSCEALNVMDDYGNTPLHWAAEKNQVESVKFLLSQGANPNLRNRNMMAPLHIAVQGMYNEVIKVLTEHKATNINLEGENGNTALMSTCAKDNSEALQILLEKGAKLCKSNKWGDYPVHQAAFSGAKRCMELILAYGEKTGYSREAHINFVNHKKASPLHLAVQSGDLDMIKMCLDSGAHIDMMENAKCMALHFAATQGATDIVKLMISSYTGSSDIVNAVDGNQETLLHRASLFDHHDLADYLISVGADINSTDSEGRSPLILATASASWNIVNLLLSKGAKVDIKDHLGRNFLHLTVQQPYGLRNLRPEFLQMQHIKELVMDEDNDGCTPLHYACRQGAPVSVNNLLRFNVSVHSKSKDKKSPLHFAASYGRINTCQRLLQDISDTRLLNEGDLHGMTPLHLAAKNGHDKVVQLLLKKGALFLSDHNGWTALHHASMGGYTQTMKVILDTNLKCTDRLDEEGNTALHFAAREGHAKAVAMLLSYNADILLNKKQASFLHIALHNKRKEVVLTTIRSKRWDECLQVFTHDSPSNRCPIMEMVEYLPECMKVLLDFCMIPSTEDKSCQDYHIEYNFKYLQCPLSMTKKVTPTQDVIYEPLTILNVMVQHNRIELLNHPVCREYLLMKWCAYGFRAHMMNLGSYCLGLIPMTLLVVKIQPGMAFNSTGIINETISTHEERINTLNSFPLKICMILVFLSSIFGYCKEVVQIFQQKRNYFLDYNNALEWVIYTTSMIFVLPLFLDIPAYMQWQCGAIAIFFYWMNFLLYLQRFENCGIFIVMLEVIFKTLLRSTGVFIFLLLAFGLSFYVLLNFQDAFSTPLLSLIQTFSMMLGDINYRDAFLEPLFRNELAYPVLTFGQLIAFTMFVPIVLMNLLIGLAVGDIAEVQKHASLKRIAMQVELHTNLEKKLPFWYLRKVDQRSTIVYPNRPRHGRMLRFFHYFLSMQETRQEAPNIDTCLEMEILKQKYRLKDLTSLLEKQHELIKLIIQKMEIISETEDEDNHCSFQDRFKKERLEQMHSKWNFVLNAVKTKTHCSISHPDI

Row | SMILES | EC50 (rat TRPA1) [µM] | IC50 (rat TRPA1) [µM] | Emax (rat TRPA1) [%] | IC50 (human TRPV1) [µM] | Emax (human TRPV1) [%] | EC50 (human TRPV1) [µM] | further results
2 | COc1ccc(CNC(=O)c2cc3ccccc3n2C)cc1 [6e, N-(4-methoxybenzyl)-1-methyl-1H-indole-2-carboxamide] | 20.3 ± 1.1 | > 50 | 81.3 ± 1.8 | > 10 | < 10 |  | 
3 | COc1cc(CNC(=O)CCCc2ccc(-c3ccccc3)s2)ccc1O [4c] |  |  |  |  |  |  | EC50 (TRPV1): 0.0016 µM; IC50 (TRPV1): 0.0017 µM
4 | COc1cc(CNC(=O)CCCCC2CCSS2)ccc1O (stereo not drawn) [compound 3] |  |  |  |  |  |  | EC50 (TRPV1): 0.13 µM; IC50 (TRPV1): 0.13 µM
5 | Cn1c(C(=O)NCc2ccc(F)cc2)cc2ccccc21 [6f, N-(4-fluorobenzyl)-1-methyl-1H-indole-2-carboxamide] | 20.4 ± 6.9 | 33.5 ± 3.2 |  | > 100 | < 10 |  | 
6 | O=C(NCc1ccccc1)c1cc2ccccc2[nH]1 [5b, N-Benzyl-1H-indole-2-carboxamide] |  | > 100 | < 10 | > 100 | < 10 |  | 
7 | Cn1c(C(=O)NCc2ccccc2)cc2ccccc21 [6c, N-Benzyl-1-methyl-1H-indole-2-carboxamide] |  | > 50 | < 10 | > 50 | < 10 |  | 
8 | COc1cc(CNC(=O)CCCc2cccs2)ccc1O [compound 2, N-(4-Hydroxy-3-Methoxybenzyl)-4-(Thiophen-2-yl)Butanamide] |  |  |  |  |  |  | EC50 (TRPV1): 0.87 µM; IC50 (TRPV1): 1.3 µM
9 | O=C(NCc1ccc(O)cc1)c1cc2ccccc2[nH]1 [5c, N-(4-Hydroxybenzyl)-1H-indole-2-carboxamide] |  | > 100 | < 10 | > 50 | 47.2 ± 0.3 | > 10 | 
10 | Cn1c(C(=O)Nc2ccc(F)cc2)cc2ccccc21 [6b, N-(4-Fluorophenyl)-1-methyl-1H-indole-2-carboxamide] | 2 ± 1.1 | 5.2 ± 0.4 | 78.6 | 6.9 ± 2.6 | 34.4 | 3.5 ± 2.1 | TRPA1 Eff. % (rat TRPA1): 78.6 ± 9.7%; TRPA1 agonist behaviour (in words) (rat TRPA1): very good TRPA1 agonist; TRPV1 Eff. % (human TRPV1): 34.4 ± 4.5%
11 | Cn1c(C(=O)NCc2ccc(Cl)c(Cl)c2)cc2ccccc21 [6h, N-(3,4-Dichlorobenzyl)-1-methyl-1H-indole-2-carboxamide] |  |  |  | 16.4 ± 0.5 | < 10 |  | 
12 | COc1cc(CNC(=O)c2cc3ccccc3n2C)ccc1O [6g, N-(4-hydroxy-3-methoxybenzyl)-1-methyl-1H-indole-2-carboxamide] | > 50 | > 100 | 59.8 ± 1.6 |  | > 60 | 0.0365 | IC50 (human TRPV1; read-out: TRPV1 IC50 (antagonism/desensitization)): 0.0535 ± 0.048 µM
13 | O=C(Nc1ccc(O)cc1)c1cc2ccccc2[nH]1 [5a, N-(4-Hydroxyphenyl)-1H-indole-2-carboxamide] |  | > 100 | < 10 | 10 ± 3.9 | 54 | 2.3 ± 0.1 | 
14 | O=C(NCc1ccc(F)cc1)c1cc2ccccc2[nH]1 [5e, N-(4-Fluorobenzyl)-1H-indole-2-carboxamide] | 23.7 ± 2.1 | > 50 | 42.8 ± 1.8 | > 100 | < 10 |  | 
15 | COc1cc(CNC(=O)CCCc2ccccc2)ccc1O [4d] |  |  |  |  |  |  | EC50 (TRPV1): 0.109 µM; IC50 (TRPV1): 0.273 µM
16 | Cn1c(C(=O)NCc2ccc(O)cc2)cc2ccccc21 [6d, N-(4-hydroxybenzyl)-1-methyl-1H-indole-2-carboxamide] |  | > 100 | < 10 | 19.2 ± 6.7 | 27.6 | 1.1 ± 0.1 | TRPV1 Eff. % (human TRPV1): 27.6 ± 0.3%
17 | O=C(NCc1ccc(Cl)c(Cl)c1)c1cc2ccccc2[nH]1 [5g, N-(3,4-Dichlorobenzyl)-1H-indole-2-carboxamide] |  |  |  | > 100 | < 10 |  | 
18 | COc1cc(CNC(=O)CCCc2ccc(-c3cccnc3)s2)ccc1O [4b] |  |  |  |  |  |  | EC50 (TRPV1): 0.0764 µM; IC50 (TRPV1): 0.145 µM
19 | O=C(NCc1ccc(F)c(F)c1)c1cc2ccccc2[nH]1 [5h, N-(3,4-Difluorobenzyl)-1H-indole-2-carboxamide] | 19.1 ± 3.1 | > 50 | 68.4 to 101 | > 100 | < 10 |  | 
20 | Cn1c(C(=O)NCc2ccc(F)c(F)c2)cc2ccccc21 [6i, N-(3,4-Difluorobenzyl)-1-methyl-1H-indole-2-carboxamide] | 10.9 ± 0.9 | 32.2 ± 3.2 | 68.4 to 101 | > 100 | < 10 |  | 
21 | COc1ccc(CNC(=O)c2cc3ccccc3[nH]2)cc1 [5d, N-(4-Methoxybenzyl)-1H-indole-2-carboxamide] | > 50 | > 100 | 39.1 ± 3.5 | > 50 | < 10 |  | 
22 | Cn1c(C(=O)NCCc2ccc(O)c(O)c2)cc2ccccc21 [6j, N-(3,4-Dihydroxyphenethyl)-1-methyl-1H-indole-2-carboxamide] |  |  |  | 0.26 ± 0.02 | > 60 | 0.18 ± 0.05 | 
23 | Cn1c(C(=O)Nc2ccc(O)cc2)cc2ccccc21 [6a, N-(4-Hydroxyphenyl)-1-methyl-1H-indole-2-carboxamide] | 22.7 ± 1.7 | > 50 | 42.9 ± 0.5 | 0.72 ± 0.08 | > 60 | 0.34 ± 0.01 | 
24 | O=C(NCCc1ccc(O)c(O)c1)c1cc2ccccc2[nH]1 [5i, N-(3,4-Dihydroxyphenethyl)-1H-indole-2-carboxamide] |  |  |  | 2.1 ± 0.1 | 37.3 ± 0.1 | 8.1 ± 0.1 | TRPV1 agonist behaviour (in words) (human TRPV1): very weak agonist
25 | COc1cc(CNC(=O)c2cc3ccccc3[nH]2)ccc1O [5f, N-(4-Hydroxy-3-methoxybenzyl)-1H-indole-2-carboxamide] |  |  |  | 1.03 ± 0.09 | 66.8 | 0.56 ± 0.08 | TRPV1 Eff. % (human TRPV1): 66.8 ± 1.3%
26 | COc1cc(CNC(=O)CCCc2ccc(I)s2)ccc1O [4a] |  |  |  |  |  |  | EC50 (TRPV1): 0.0074 µM; IC50 (TRPV1): 0.0051 µM
